Earlier results in patent US10632107B2, “Crystalline forms of benzoquinoline inhibitors of vesicular monoamine transporter 2” (Apotex Inc., priority 2018, dated 2020).
Where two headings read alike, the source gives them in different places.

## COc1cc2c(cc1OC)C1CC(=O)C(CC(C)C)CN1CC2 (racemic) [Tetrabenazine, rel-(3R,11bR)-1,3,4,6,7,11b-hexahydro-9,10-dimethoxy-3-(2-methylpropyl)-2H-benzo[a]quinolizin-2-one]
Low pH of the stomach
  solubility: slight solubility
pH values of greater than 4
  solubility: practically insoluble
